# Target: T1, human vasopressin V1b receptor (Homo sapiens, UniProt P47901)
# T1 construct: expressed in transfected cells; host or cells: CHO-K1 (cell line hV1b_3H2_CHO), membrane preparation
# T1 sequence (P47901 1-424): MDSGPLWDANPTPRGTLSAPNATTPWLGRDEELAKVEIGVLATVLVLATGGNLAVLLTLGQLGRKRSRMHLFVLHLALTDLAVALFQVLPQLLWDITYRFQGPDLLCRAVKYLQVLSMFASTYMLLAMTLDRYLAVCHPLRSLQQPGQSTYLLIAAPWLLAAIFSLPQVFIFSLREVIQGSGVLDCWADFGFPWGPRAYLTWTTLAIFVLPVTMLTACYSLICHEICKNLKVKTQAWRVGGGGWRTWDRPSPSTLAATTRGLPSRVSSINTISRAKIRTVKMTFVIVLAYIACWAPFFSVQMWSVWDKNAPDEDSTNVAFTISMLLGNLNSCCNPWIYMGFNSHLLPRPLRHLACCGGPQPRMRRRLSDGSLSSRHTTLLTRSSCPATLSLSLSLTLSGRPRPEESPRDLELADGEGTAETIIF
# Assay: Vasopressin V1b receptor binding test
# Conditions: membranes of CHO-K1 cells, displacement of 1.5 nM 3H-AVP
# Description: • Vasopressin V1b Receptor Binding Test: • Substances:
# The test substances were dissolved at a concentration of 10^−2 M in DMSO and diluted further in DMSO to 5×10^−4 M to 5×10^−9 M. These DMSO solutions were diluted 1:10 with test buffer. The concentration of substance was again diluted 1:5 in the test preparation.
# The membrane pellet was homogenized and centrifuged again as described, and then taken up in 50 mM Tris-HCl, pH 7.4, homogenized and, frozen in aliquots, stored at −190° C. in liquid nitrogen.
# The incubation buffer was: 50 mM Tris, 10 mM MgCl2, 0.1% BSA, pH 7.4. […] The nonspecific binding was determined with 1 μM AVP (Bachem #H1780). All determinations were performed in triplicate. After incubation (60 minutes at room temperature), the free radioligand was filtered off by vacuum filtration (Skatron cell harvester 7000) on Whatman GF/B glass-fibre filter mats and the filters were transferred to scintillation vessels. Liquid scintillation measurement was performed in a Tricarb instrument, Model 2000 or 2200CA (Packard). Conversion of the measured cpm to dpm was performed with the aid of a standard quench series.
# The binding parameters were calculated by nonlinear regression in SAS.
# For the compounds according to the invention, the affinities for the human vasopressin receptor V1b were measured according to the above test and the affinity constant (Ki) was determined.
row,Compound,Ki [µM]
1,"CCOc1ccccc1C1(N2CCN(c3ccncc3)CC2)C(=O)N(S(=O)(=O)c2ccccc2)c2ccc(C#N)cc21 (centres unmarked) [Example 14, 5-Cyano-1-benzenesulphonyl-3-(2-ethoxyphenyl)-3-(4-pyridin-4-yl-piperazin-1-yl)-2,3-dihydro-1H-indol-2-one]",0.05 to 0.5
2,"CCOc1ccccc1C1(N2CCN(c3ccncc3)CC2)C(=O)N(S(=O)(=O)c2ccc(F)cc2)c2ccc(C#N)cc21 (centres unmarked) [Example 15, 5-Cyano-3-(2-ethoxyphenyl)-1-(4-fluoro-benzenesulphonyl)-3-(4-pyridin-4-yl-piperazin-1-yl)-2,3-dihydro-1H-indol-2-one]",0.05 to 0.5
3,"COc1ccccc1C1(N2CCN(c3ccncc3)CC2)C(=O)N(S(=O)(=O)c2ccccc2)c2ccc(Cl)cc21 (centres unmarked) [Example 16, 1-Benzenesulphonyl-5-chloro-3-(2-methoxyphenyl)-3-(4-pyridin-4-yl-piperazin-1-yl)-1,3-dihydro-indol-2-one]",0.05 to 0.5
4,"COc1ccccc1C1(N2CCN(c3ccncc3)CC2)C(=O)N(S(=O)(=O)c2ccc(Cl)cc2)c2ccc(Cl)cc21 (centres unmarked) [Example 18, 5-Chloro-1-(4-chloro-benzenesulphonyl)-3-(2-methoxyphenyl)-3-(4-pyridin-4-yl-piperazin-1-yl)-1,3-dihydro-indol-2-one]",0.05 to 0.5
5,"COc1ccc(S(=O)(=O)N2C(=O)C(c3ccccc3OC)(N3CC4CN(c5ccncc5)CC4C3)c3cc(Cl)ccc32)c(OC)c1 (centres unmarked) [Example 19, 5-Chloro-1-(2,4-dimethoxy-benzenesulphonyl)-3-(2-methoxyphenyl)-3-(5-pyridin-4-yl-hexahydro-pyrrolo[3,4-c]pyrrol-2-yl)-1,3-dihydro-indol-2-one]",< 0.05
6,"COc1ccc(S(=O)(=O)N2C(=O)C(c3ccccc3OC)(N3C[C@H]4CN(c5ccncc5)C[C@H]43)c3cc(Cl)ccc32)c(OC)c1 (stereo partly drawn) [Example 21, 5-Chloro-1-(2,4-dimethoxy-benzenesulphonyl)-3-(2-methoxyphenyl)-3-((1R,5S)-3-pyridin-4-yl-3,6-diaza-bicyclo[3.2.0]hept-6-yl)-1,3-dihydro-indol-2-one]",< 0.05

# More lines, now with the values ahead:
row,Ki [µM],Compound
1,0.05 to 0.5,"COc1ccc(S(=O)(=O)N2C(=O)C(c3ccccc3OC)(N3CCN(c4ccncc4)CC3)c3cc(Cl)ccc32)cc1 (centres unmarked) [Example 20, 5-Chloro-1-(4-methoxy-benzenesulphonyl)-3-(2-methoxyphenyl)-3-(4-pyridin-4-yl-piperazin-1-yl)-1,3-dihydro-indol-2-one]"
2,0.05 to 0.5,"COc1ccc(S(=O)(=O)N2C(=O)C(c3ccccc3OC)(N3CCN(c4ccncc4)CC3)c3ccc(C)cc32)c(OC)c1 (centres unmarked) [Example 23, 1-(2,4-Dimethoxy-benzenesulphonyl)-3-(2-methoxyphenyl)-6-methyl-3-(4-pyridin-4-yl-piperazin-1-yl)-1,3-dihydro-indol-2-one]"
3,< 0.05,"COc1ccc(S(=O)(=O)N2C(=O)C(c3ccccc3Cl)(N3CCN(c4ccncc4)CC3)c3cc(Cl)ccc32)c(OC)c1 (centres unmarked) [Example 24, 5-Chloro-3-(2-chloro-phenyl)-1-(2,4-dimethoxy-benzenesulphonyl)-3-(4-pyridin-4-yl-piperazin-1-yl)-1,3-dihydro-indol-2-one]"
4,0.05 to 0.5,"COc1ccc(S(=O)(=O)N2C(=O)C(c3cc(CN(C)C)ccc3OC)(N3CCN(c4ccncc4)CC3)c3cc(Cl)ccc32)c(OC)c1 (centres unmarked) [Example 25, 5-Chloro-1-(2,4-dimethoxy-benzenesulphonyl)-3-(5-dimethylaminomethyl-2-methoxyphenyl)-3-(4-pyridin-4-yl-piperazin-1-yl)-1,3-dihydro-indol-2-one]"
5,0.05 to 0.5,"COc1ccc(S(=O)(=O)N2C(=O)C(c3ccccc3OC)(N3CCN(c4ccncc4)CC3)c3cc(C#N)ccc32)c(OC)c1 (centres unmarked) [Example 26, 5-Cyano-1-(2,4-dimethoxy-benzenesulphonyl)-3-(2-methoxyphenyl)-3-(4-pyridin-4-yl-piperazin-1-yl)-2,3-dihydro-1H-indol-2-one]"

# From patent US8431567B2 (Abbott GmbH & Co. KG, priority 2006, dated 2013)
